Results on four compounds are retold here after ChEMBL document CHEMBL4270552, “4-(Phenoxy) and 4-(benzyloxy)benzamides as potent and selective inhibitors of mono-ADP-ribosyltransferase PARP10/ARTD10” (Eur J Med Chem, 2018).

Where only a bound is given, the exact number is not on record here.

Test [1] has as its target T1, Protein mono-ADP-ribosyltransferase PARP10 (Homo sapiens, UniProt Q53GL7).
T1 sequence (Q53GL7 whole entry): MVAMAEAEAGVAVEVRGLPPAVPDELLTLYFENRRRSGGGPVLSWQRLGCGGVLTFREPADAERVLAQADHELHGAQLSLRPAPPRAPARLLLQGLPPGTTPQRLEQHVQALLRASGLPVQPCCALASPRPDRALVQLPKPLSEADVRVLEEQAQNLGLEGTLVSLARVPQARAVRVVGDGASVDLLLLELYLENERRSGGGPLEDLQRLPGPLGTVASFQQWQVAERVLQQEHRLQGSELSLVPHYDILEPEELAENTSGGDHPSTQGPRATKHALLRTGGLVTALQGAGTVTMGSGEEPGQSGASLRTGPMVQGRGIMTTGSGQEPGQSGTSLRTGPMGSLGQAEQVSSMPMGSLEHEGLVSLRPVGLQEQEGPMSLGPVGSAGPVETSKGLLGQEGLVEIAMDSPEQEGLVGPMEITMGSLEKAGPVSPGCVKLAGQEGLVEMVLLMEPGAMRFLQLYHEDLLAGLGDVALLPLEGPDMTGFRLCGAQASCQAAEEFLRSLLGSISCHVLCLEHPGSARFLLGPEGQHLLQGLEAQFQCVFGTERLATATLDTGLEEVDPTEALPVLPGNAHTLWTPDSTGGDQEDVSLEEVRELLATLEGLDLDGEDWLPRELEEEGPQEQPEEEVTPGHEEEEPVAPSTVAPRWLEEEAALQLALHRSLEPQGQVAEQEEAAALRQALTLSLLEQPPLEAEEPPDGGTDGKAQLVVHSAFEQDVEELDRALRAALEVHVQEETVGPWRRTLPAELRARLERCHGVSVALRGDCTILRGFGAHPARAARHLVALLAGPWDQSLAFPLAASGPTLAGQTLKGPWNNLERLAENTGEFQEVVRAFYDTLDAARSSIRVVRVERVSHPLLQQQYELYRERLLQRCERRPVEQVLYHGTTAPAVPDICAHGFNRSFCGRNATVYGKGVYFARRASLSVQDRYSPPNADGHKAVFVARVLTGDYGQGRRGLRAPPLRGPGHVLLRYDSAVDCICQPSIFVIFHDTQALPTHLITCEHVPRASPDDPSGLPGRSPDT
Put plainly: Inhibition of C-terminal His-tagged human ARTD10 (809 to 1017 residues) expressed in Escherichia coli Rosetta2 (DE3) using SRPK2 as substrate after 13 hrs in presence of NAD+.

The target of test [2] is T2, Poly [ADP-ribose] polymerase tankyrase-1 (Homo sapiens, UniProt O95271).
T2 sequence (O95271 whole entry): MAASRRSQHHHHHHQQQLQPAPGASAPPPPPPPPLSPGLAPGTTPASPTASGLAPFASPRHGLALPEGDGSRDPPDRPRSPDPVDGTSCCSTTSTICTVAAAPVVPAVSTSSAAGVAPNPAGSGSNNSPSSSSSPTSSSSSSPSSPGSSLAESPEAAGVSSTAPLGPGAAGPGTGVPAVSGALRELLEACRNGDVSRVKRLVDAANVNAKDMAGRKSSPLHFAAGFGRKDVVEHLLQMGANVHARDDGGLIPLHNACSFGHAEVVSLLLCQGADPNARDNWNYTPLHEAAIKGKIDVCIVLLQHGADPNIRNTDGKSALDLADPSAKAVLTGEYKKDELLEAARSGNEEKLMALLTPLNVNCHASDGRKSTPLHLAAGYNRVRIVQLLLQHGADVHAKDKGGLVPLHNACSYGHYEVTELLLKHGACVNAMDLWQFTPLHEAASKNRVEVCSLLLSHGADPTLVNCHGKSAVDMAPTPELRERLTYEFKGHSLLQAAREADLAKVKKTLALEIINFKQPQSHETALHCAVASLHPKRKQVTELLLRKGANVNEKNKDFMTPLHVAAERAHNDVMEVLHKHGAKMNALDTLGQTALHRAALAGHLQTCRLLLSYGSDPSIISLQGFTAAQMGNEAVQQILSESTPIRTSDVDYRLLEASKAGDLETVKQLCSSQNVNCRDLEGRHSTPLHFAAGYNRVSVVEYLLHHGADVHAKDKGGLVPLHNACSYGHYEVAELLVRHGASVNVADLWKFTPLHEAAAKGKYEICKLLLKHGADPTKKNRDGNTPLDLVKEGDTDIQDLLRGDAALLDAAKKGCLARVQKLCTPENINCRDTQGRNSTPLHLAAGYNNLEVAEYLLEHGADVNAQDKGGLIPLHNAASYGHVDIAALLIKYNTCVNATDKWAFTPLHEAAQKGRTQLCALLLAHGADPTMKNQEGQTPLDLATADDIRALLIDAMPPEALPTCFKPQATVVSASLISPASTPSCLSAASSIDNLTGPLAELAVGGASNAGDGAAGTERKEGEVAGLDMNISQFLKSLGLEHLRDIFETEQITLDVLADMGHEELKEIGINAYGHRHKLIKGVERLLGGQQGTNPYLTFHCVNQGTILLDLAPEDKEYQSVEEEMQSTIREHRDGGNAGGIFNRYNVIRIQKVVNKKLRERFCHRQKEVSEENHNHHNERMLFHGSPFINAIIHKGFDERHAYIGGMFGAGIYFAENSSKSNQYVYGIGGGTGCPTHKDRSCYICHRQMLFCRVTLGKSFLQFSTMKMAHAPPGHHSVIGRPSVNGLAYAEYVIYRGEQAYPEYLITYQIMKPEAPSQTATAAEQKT
Briefly: Inhibition of N-terminal His-tagged human ARTD5 (1030 to 1317 residues) expressed in Escherichia coli Rosetta2 (DE3) using TCEP as substrate after 18 hrs in presence of NAD+.

The target of test [3] is Protein mono-ADP-ribosyltransferase PARP14 (Homo sapiens, UniProt Q460N5). Put plainly: Inhibition of N-terminal His-tagged thioredoxin-fused human ARTD8 (1535 to 1801 residues) expressed in Escherichia coli Rosetta2 (DE3) after 21 hrs in presence of NAD+.
Test [4] addresses T3, Protein mono-ADP-ribosyltransferase PARP16 (Homo sapiens, UniProt Q8N5Y8).
T3 sequence (Q8N5Y8 whole entry): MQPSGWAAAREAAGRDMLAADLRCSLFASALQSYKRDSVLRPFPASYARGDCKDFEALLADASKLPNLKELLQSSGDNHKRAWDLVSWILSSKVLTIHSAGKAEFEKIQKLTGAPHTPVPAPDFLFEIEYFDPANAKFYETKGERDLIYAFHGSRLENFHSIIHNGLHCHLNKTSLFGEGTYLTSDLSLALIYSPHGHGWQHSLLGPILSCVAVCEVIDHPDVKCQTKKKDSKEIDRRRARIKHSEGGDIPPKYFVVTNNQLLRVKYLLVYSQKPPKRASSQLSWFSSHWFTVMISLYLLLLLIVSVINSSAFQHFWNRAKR
Put plainly: Inhibition of N-terminal His-tagged human ARTD15 (1 to 280 residues) expressed in Escherichia coli Rosetta2 (DE3) after 24 hrs in presence of NAD+.

For test [5], the target named is T4, Protein mono-ADP-ribosyltransferase PARP10 (Homo sapiens) (UniProt Q53GL7).
T4 sequence (whole entry): T1 sequence (Q53GL7 whole entry)
Description: Stabilization of C-terminal His-tagged human ARTD10 (809 to 1017 residues) expressed in Escherichia coli Rosetta2 (DE3) assessed as change in melting temperature at 100 uM by SYPRO Orange-dye based differential scanning fluorimetric method

Chain of Protein mono-ADP-ribosyltransferase PARP14 (Q460N5 whole entry, the tested form may be a part): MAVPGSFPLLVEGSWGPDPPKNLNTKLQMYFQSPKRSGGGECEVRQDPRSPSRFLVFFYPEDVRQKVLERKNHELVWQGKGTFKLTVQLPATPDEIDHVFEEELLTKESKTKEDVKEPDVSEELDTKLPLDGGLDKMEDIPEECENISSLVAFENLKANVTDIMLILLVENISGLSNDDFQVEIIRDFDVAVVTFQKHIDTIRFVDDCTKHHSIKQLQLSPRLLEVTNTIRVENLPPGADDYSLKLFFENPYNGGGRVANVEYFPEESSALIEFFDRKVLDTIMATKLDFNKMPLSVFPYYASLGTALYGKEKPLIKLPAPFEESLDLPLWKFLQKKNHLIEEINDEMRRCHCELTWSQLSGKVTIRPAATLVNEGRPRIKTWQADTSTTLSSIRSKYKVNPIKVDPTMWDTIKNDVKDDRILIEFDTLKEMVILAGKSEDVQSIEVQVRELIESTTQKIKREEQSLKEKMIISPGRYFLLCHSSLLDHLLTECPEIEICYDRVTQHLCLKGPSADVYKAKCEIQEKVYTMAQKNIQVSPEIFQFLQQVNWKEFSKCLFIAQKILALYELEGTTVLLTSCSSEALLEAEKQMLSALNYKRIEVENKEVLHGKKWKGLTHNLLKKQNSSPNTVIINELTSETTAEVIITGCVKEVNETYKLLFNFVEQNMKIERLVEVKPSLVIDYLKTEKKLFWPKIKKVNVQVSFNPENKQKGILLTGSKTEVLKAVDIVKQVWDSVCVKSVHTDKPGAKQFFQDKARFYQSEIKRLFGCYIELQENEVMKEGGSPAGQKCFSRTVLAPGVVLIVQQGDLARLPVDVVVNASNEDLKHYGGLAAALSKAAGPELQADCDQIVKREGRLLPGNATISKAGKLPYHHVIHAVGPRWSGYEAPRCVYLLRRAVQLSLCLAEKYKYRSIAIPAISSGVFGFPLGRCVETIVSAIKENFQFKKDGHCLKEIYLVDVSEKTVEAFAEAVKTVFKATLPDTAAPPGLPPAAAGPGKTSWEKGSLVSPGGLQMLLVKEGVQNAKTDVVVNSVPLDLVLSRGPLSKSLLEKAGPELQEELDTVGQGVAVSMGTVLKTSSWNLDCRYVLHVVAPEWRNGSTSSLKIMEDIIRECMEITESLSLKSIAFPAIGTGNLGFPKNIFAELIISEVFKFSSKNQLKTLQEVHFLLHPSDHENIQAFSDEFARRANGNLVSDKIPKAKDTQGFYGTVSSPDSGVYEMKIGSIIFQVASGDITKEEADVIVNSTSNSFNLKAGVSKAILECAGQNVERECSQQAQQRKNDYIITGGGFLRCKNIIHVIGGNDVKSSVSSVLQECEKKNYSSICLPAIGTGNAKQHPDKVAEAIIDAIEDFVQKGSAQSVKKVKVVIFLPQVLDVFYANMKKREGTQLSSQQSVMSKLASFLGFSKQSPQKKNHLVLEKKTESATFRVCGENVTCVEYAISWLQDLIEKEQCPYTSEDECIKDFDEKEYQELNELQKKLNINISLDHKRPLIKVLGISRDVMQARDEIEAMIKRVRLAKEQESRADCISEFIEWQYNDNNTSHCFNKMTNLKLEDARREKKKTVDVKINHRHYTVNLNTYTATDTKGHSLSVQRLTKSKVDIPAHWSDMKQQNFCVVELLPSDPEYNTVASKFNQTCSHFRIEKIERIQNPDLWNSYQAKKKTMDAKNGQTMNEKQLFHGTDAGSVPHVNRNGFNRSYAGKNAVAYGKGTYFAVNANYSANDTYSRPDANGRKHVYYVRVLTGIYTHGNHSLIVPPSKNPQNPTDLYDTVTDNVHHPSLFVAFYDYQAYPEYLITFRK

In general, ΔTm refers to the change in melting temperature against a reference sample. For the compound `NC(=O)c1ccc(Oc2ccc(C(=O)O)cc2)cc1`, the IC50 in test [1] (read-out: IC50) was 180 nM; in test [1] (read-out: pIC50 (converted)), 186 nM; in test [2], more than 100000 nM; in test [3], more than 10000 nM; in test [4], more than 10000 nM. Further, the ΔTm in test [5] stood at 5.21 °C.

Regarding `NC(=O)c1ccc(OCc2ccccc2F)cc1`, the IC50 is 230 nM in test [1] (read-out: IC50); 234 nM in test [1] (read-out: pIC50 (converted)); more than 100000 nM in test [2]; 10000 nM in test [3]; more than 10000 nM in test [4]. For the same compound, the shift in melting temperature (ΔTm) in test [5] is 4.2 °C.

Turning to `NC(=O)c1ccc(Oc2ccc(C=O)cc2)cc1`, the IC50 is 710 nM in test [1] (read-out: IC50), more than 100000 nM in test [2], more than 10000 nM in test [3] and more than 10000 nM in test [4]. The thermal shift (ΔTm) in test [5] amounted to 3.6 °C.

Take `COc1ccc(C(N)=O)cc1`: the IC50 is 2800 nM in test [1] (read-out: IC50); 2750 nM in test [1] (read-out: pIC50 (converted)); more than 100000 nM in test [2]; more than 10000 nM in test [3]; more than 10000 nM in test [4]. Moreover, in test [5], the ΔTm came out at 2.76 °C.
